Experimental data taken from publication PMC5725665, “Discovery of a Highly Selective Cell‐Active Inhibitor of the Histone Lysine Demethylases KDM2/7” (Angewandte Chemie (International Ed. in English), 2017).

How the values were obtained:
KDM2A = target: T1, KDM2A (Homo sapiens, UniProt Q9Y2K7); assay: demethylase activity assay (RapidFire MS / AlphaScreen); assay type: biochemical; conditions: not competitive with 2-OG or peptide substrate
T1 construct: isolated enzyme
T1 sequence (Q9Y2K7 1-517 limits assumed): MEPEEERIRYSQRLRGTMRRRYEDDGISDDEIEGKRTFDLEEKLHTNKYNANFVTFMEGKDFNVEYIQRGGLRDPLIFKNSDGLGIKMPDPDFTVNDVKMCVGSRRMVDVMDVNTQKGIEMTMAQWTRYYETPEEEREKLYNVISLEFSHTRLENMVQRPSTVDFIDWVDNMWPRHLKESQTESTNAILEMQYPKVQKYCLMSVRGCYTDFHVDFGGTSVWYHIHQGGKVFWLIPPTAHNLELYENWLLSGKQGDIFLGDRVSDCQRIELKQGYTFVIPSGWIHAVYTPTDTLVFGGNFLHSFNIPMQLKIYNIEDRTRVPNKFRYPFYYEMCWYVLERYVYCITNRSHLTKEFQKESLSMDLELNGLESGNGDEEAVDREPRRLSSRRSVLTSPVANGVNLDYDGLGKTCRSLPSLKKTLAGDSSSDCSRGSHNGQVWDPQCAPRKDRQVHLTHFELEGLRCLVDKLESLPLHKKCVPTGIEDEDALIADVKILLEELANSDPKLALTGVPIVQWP

CHD1 = CHD1 (Homo sapiens, UniProt O14646); assay: biochemical; design: AlphaScreen peptide displacement assay, methyl-lysine reader domains; conditions: read-out: IC50 reader domains, AlphaScreen
Procedure: (§1) S106 1.76 1.63 2.01 133 2.78 6.13 6.23 3.55 2.63 1.75 1.31 Table S-3: Summary of indoles tested. IC50 values correspond to KDM2A inhibition by AlphaScreen. 3.2 Selectivity-screening against other epigenetic writer and reader proteins Methyl-Lysine Reader domain assays. Fluorescence polarisation assays for methyl-lysine reader domains were carried out as described. AlphaScreen peptide displacement assays were performed according to manufacturer’s protocol (PerkinElmer, USA) with minor modifications. All reagents were diluted in 25 mM HEPES, 100 mM NaCl, 0.1 % BSA, pH 7.4 and 0.05 % CHAPS and allowed to equilibrate to room temperature prior to addition to plates. An 11-point 1:2.0

KDM4A Tudor domain = target: T2, KDM4A Tudor domain (Homo sapiens, UniProt O75164); assay: biochemical; design: AlphaScreen peptide displacement assay, methyl-lysine reader domains; conditions: read-out: IC50 reader domains, AlphaScreen
T2 construct: Tudor domain
T2 sequence (O75164 1-1064): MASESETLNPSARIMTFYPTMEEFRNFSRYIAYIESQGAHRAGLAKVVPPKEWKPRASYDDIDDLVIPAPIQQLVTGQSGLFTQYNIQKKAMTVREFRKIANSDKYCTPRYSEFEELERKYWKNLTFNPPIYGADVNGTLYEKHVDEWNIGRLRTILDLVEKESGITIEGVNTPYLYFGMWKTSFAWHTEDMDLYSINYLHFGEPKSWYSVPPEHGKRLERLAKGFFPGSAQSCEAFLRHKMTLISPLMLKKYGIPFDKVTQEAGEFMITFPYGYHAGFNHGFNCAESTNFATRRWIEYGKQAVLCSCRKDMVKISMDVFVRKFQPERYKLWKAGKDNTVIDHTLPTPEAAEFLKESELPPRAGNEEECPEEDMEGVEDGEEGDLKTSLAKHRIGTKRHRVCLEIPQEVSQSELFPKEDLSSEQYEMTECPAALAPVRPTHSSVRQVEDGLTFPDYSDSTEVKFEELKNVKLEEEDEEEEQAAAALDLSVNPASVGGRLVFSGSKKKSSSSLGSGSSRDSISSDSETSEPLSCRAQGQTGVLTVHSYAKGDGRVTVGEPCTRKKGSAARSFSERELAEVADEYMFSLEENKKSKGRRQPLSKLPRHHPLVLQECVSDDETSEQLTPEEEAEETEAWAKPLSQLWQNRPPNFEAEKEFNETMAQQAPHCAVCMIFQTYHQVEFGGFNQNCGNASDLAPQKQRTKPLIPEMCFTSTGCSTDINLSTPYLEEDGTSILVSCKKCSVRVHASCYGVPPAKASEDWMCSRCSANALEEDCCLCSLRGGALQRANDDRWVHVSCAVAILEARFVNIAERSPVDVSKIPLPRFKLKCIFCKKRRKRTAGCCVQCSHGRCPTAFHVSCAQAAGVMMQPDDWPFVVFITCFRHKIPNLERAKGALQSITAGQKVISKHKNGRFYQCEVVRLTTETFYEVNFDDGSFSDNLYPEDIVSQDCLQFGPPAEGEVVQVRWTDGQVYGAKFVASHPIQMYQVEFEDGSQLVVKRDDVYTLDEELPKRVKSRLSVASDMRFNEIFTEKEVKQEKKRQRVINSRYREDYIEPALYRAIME
Procedure: as §1

KDM7B PHD-finger domain = target: T3, KDM7B PHD-finger domain (Homo sapiens, UniProt Q9UPP1); assay: biochemical; design: AlphaScreen peptide displacement assay, methyl-lysine reader domains; conditions: read-out: IC50 reader domains, AlphaScreen
T3 construct: gene PHF8; PHD-finger domain
Procedure: as §1

SGF29 = target: T4, SGF29 (Homo sapiens, UniProt Q96ES7); assay: biochemical; design: AlphaScreen peptide displacement assay, methyl-lysine reader domains; conditions: read-out: IC50 reader domains, AlphaScreen
T4 sequence (Q96ES7 1-293): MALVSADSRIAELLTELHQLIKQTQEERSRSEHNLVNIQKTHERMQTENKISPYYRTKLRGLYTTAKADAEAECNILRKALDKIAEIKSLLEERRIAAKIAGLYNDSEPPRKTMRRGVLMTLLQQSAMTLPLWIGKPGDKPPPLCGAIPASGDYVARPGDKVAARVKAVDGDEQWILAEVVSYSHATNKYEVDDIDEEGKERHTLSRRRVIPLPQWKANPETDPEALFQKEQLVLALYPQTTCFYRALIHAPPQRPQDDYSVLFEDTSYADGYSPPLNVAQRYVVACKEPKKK
Procedure: as §1

SPIN1 = SPIN1 (Homo sapiens, UniProt Q9Y657); assay: biochemical; design: AlphaScreen peptide displacement assay, methyl-lysine reader domains; conditions: read-out: IC50 reader domains, AlphaScreen
Procedure: as §1

T3 sequence (Q9UPP1 whole entry, the tested form may be a part): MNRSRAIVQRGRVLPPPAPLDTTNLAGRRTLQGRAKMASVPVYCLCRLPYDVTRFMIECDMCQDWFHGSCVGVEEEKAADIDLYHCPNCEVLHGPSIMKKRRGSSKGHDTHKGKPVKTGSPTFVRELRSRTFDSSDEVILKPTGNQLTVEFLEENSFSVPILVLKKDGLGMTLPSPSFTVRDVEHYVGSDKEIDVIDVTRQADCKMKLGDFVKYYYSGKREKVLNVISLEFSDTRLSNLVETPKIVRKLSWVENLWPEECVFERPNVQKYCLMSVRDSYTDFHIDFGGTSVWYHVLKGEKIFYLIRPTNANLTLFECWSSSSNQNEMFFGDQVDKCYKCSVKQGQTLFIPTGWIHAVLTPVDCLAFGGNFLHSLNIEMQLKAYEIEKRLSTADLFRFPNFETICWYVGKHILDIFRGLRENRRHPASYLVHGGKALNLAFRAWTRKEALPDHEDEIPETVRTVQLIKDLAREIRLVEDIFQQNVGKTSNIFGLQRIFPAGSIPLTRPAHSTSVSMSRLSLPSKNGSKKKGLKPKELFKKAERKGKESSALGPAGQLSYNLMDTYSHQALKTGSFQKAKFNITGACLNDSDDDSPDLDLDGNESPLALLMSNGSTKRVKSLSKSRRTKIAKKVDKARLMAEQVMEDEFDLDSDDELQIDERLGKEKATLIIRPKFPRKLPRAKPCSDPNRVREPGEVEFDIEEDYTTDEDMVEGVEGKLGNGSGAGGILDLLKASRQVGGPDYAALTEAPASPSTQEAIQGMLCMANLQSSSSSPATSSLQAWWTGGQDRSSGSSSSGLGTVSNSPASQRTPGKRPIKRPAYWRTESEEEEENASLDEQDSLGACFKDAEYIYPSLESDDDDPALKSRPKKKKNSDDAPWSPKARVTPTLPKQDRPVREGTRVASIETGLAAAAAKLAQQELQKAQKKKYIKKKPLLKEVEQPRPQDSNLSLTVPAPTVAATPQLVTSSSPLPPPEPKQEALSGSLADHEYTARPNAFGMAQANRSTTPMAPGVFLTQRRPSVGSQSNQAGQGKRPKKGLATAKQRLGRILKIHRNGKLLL
SPIN1, sequence (Q9Y657 whole entry, the tested form may be a part): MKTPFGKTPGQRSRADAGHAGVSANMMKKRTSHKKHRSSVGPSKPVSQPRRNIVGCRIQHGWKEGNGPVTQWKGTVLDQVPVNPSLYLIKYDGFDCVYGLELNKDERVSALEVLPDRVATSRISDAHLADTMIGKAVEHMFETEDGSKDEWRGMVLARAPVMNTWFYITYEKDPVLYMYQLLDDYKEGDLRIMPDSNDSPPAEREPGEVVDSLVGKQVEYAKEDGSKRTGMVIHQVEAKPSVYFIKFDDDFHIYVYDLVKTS
CHD1, sequence (O14646 whole entry, the tested form may be a part): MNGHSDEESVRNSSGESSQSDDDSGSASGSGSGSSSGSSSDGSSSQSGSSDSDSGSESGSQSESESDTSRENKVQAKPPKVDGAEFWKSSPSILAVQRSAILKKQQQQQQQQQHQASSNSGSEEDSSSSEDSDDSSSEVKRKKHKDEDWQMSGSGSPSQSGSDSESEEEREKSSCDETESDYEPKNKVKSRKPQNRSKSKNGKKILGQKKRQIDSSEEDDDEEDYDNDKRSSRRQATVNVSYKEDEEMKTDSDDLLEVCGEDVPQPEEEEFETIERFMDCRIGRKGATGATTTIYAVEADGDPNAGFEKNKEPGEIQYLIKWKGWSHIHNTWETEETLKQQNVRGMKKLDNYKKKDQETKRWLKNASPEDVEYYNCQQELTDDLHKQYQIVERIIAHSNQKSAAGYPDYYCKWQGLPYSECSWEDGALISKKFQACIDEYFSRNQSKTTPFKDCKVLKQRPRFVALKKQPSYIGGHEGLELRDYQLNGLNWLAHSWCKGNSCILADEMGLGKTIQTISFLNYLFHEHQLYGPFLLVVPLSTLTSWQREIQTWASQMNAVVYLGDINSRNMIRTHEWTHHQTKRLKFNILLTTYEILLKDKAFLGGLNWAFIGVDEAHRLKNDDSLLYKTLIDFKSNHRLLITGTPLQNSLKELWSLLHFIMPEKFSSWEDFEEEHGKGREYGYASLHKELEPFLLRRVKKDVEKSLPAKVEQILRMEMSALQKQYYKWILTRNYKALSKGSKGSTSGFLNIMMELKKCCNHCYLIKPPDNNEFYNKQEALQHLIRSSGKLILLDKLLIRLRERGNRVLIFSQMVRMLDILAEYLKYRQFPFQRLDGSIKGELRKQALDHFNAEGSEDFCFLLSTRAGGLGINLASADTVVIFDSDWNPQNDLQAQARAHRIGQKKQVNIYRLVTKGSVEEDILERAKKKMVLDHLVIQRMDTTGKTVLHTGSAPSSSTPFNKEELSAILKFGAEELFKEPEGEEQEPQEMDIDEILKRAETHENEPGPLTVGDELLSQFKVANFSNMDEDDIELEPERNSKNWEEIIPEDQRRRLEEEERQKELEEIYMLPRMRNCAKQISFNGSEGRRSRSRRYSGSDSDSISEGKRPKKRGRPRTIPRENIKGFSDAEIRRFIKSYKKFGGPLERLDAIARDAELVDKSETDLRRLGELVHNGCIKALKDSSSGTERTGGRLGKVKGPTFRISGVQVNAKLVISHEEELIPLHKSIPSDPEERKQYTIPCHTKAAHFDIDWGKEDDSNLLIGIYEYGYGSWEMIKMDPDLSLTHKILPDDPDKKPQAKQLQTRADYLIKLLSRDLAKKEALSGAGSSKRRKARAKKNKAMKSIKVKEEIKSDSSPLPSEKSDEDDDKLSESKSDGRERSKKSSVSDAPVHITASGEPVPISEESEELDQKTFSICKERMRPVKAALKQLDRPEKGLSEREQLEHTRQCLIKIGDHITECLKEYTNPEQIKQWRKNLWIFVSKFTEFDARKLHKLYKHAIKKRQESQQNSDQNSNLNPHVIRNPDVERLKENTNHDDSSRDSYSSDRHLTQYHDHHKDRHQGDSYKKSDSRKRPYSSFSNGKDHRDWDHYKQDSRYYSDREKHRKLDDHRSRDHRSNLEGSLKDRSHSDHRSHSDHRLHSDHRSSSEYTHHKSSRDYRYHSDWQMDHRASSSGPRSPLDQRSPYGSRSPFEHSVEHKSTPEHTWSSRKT

IC50 (KDM2A): 0.16 µM
IC50 (CHD1): > 20 µM
IC50 (KDM4A Tudor domain): > 20 µM
IC50 (KDM7B PHD-finger domain): > 20 µM
IC50 (SGF29): > 20 µM
IC50 (SPIN1): > 20 µM
Compound: CC(=O)N1c2ccccc2[C@@](C#N)(c2ccccc2)[C@@H]1c1cncc(CCCCCCCN2CCCC2)c1 [(S,S)-6]
